Test results taken from US20120288482A1, “THERAPEUTIC AGENT (Y-39983) FOR CORNEAL ENDOTHELIAL DYSFUNCTION” (priority 2009, published 2012).

Columns and labels:
corneoscleral tissues = assay: Cell death suppression in cornea preserved in corneal storage solution (Example 10); format: cell-based, rabbit; settings: 4° C.
Description: In this Example, test substances and control substances prepared in the same manner as in Example 4 were used. Both right and left eyeballs of 5 male Japanese white rabbits (Biotek Co., Ltd.) were removed, and corneoscleral tissues were prepared. One corneoscleral tissue was placed in a storage solution Optisol-GS (registered trade mark) (Bausch & Lomb, Inc) (control), and the other corneoscleral tissue was placed in Optisol-GS containing 0.95 μM compound (I). Similarly, corneoscleral tissues were prepared from another 5 male Japanese white rabbits, one corneoscleral tissue was placed in Optisol-GS (control), and the other corneoscleral tissue was placed in Optisol-GS containing 10 μM Y-27632. The samples containing each corneoscleral tissue were preserved at 4° C. Two or three weeks later, the corneoscleral tissues were stained with Hoechst (Hoechst 33342, Sigma, Cat. #B2261), PI (propidium iodide, Sigma, Cat. #P4170) and Annexin V (Annexin V-FITC, MBL, Cat. #4700-100), and the cells therein were indentified as living cells, dead cells and apoptotic cells. In addition, the various cells in the stained cornea were counted using ImageJ (ver.1.44i, NIH, http://imagej.nih.gov/ij), and the mean value and the standard deviation of 5 visual fields were determined. The various cell counts were statistically analyzed by the student's t-test.

[1] = test system: rabbit bullous keratopathy model; assay: Corneal endothelial cell injection therapy in rabbit bullous keratopathy model (Example 8); format: in vivo; settings: 14 days after cell injection; for expression of Na+/K+ ATPase: compared to control
Description: Male Japanese white rabbits (Biotek Co., Ltd., 8 rabbits) were subjected to the following nictitating membrane excision. Each animal was set in a positioner, and the ocular surface was topically anesthetized by instillation of a topical anesthesia (Benoxil instillation 0.4%, Santen Pharmaceutical Co., Ltd.). Then, the root position of the nictitating membrane was pressed with a clamp for 30 sec, and compressing mark was cut with scissors. After excision of the nictitating membrane, the antibiotic ointment (tarivid eye ointment, Santen Pharmaceutical Co., Ltd.) was instilled to prevent infection.
Three days after nictitating membrane excision, phacoemulsification and aspiration surgery (PEA) was performed on the left eye. Under systemic anesthesia, 3 mm incision was formed in the corneoscleral limbus, crystalline lens was excised by a cataract surgery instrument (NIDEK Co., Ltd.), and the incision was sutured with a nylon thread (Mani Inc.). After phacoemulsification and aspiration surgery (PEA), the antibiotic ointment (tarivid eye ointment, Santen Pharmaceutical Co., Ltd.) was instilled to prevent infection. After 5 days from the PEA, the animals were systemically anesthetized by intramuscular administration of Ketalar muscular injection ([…], DAIICHI SANKYO COMPANY, LIMITED., 0.6 ml) and Celactal 2% Injection (Bayer, Ltd., 0.25 ml). Then, Benoxil instillation 0.4% (Santen Pharmaceutical Co., Ltd., one drop) was instilled and the eye was opened using a lid speculum. Thereafter, 1 mm incision was formed in the corneoscleral limbus, and corneal endothelial cells were scraped with a silicon surgical instrument to mechanically detach the cells. The detachment area was confirmed by trypan blue staining.
The corneal endothelial cells were mechanically scraped, the cultured corneal endothelial cells were collected with 0.05% trypsin-EDTA (Invitrogen, Cat. #25300-054) from the culture flask to give a cell suspension. Using Dulbecco's modified Eagle's medium (DMEM) (Invitrogen, 12320-032), the cultured rabbit corneal endothelial cells were suspended in 3 groups of 10 μM compound (I)/DMEM, 100 μM Y-27632/DMEM and DMEM, each at 1.0×10^6 cells/ml. The cell suspension of each group (200 μl (2.0×10^5 cells per one eye)) was injected with a 22 gauge needle to the anterior chamber from the corneoscleral limbus of the prepared rabbit bullous keratopathy model, and the rabbit was fixed looking downward such that the corneal endothelium face was on the upper side and the corneal epithelial face was on the lower side for 3 hours. The fixing with looking downward was performed with appropriate addition of anesthetics, paying sufficient attention to animal protection.
After 14 days from the cell injection, the treated eye was isolated, and a corneoscleral tissue was excised from the isolated eyeball. The obtained corneoscleral tissue was fixed with 4% para-formaldehyde/PBS for 10 min, and blocked overnight with PBS (Invitrogen, Cat. #14190-144) containing 1% BSA (SIGMA, Cat. #A7906-50G). Thereafter, the corneoscleral tissue was divided into two, and treated with Alexa-488 labeling phalloidin staining actin (Invitrogen, Cat. #Al2379), or anti-Na^+/K^+ ATPase antibody, which is a corneal endothelium marker (UP State, Cat. #05-369), for 2 hours. The anti-Na^+/K^+ ATPase antibody treatment group was further treated with Alexa-488 labeled secondary antibody (Invitrogen, Cat. #A-21202) for 1 hour. Thereafter, the cells were immersed in Vectashield (registered trade mark)-DAPI (Vector Laboratories, Cat. #H-1200) solution, and mounted using cover glass. The specimen was observed under a confocal laser microscope.
Taking the number of nuclei stained with DAPI as the corneal endothelial cell count, the DAPI stained images were analyzed by Image-Pro plus (Media Cybernetics, Inc.), and corneal endothelial cells were counted.

corneal endothelium = settings: instillation of 10 mM; cited from earlier work
[2] = test system: cultured monkey corneal endothelial cells; settings: in vitro; cited from earlier work
[3] = test system: rabbit corneal endothelial cells; assay: Production of cultured corneal endothelial cell sheet for transplantation, ZO-1 and Na+/K+ ATPase immunostaining (Example 7); format: cell-based; settings: for coverage of the sheet with cells / expression of Na+/K+ ATPase / expression of ZO-1: 48 hours after seeding
Description: In this Example, rabbit corneal endothelial cells prepared in the same manner as in Example 4 were used.
In this Example, moreover, test substances and control substance prepared in the same manner as in Example 4 were used.
The rabbit corneal endothelial cells were seeded on Vitrigel™ (Asahi Glass) at a division ratio of 1:1, and a cultured corneal endothelial cell sheet for transplantation was produced. When producing the corneal endothelial cell sheet, 0.95 μM compound (I), 10 μM Y-27632 or 0.04% DMSO was added. The obtained corneal endothelial cell sheet was subjected to fluorescence immunostaining with ZO-1 and Na^+/K^+ ATPase, which are functional proteins of corneal endothelial cells, and expression was confirmed.
The corneal endothelial cell sheet was fixed with 95% ethanol (−30° C.) for 10 min, washed with PBS, and treated with 0.5% Triton X-100/PBS for 5 min. Then, it was treated with 1% BSA/PBS for 1 hour, and treated overnight with anti-ZO-1 antibody (Invitrogen, Cat. #339100) or anti-Na^+/K^+ ATPase antibody (Millipore, Cat. #C464.6). After washing with PBS, it was treated with Alexa-488 labeling secondary antibody for 1 hour. After washing with PBS, mounting medium (Vectashield (registered trade mark)) containing DAPI was added dropwise to the sheet, and the sheet was sealed with cover glass. The image was taken with a fluorescence microscope to confirm expression of ZO-1 and Na^+/K^+ ATPase. The immunostaining was performed both 48 hours and 14 days after the seeding (FIG. 10 and FIG. 11).

Question: Which results are given for C[C@@H](N)[C@H]1CC[C@H](C(=O)Nc2ccncc2)CC1 [Y-27632, reference compound]?
Answer: number of dead cells versus control (corneoscleral tissues; 10 μM in Optisol-GS): only the number of dead cells decreased significantly; fibrosis of injected cells (Phalloidin staining) ([1]; 100 μM in cell suspension): suppression of fibrosis of cells; corneal endothelial cell count versus control group ([1]; 100 μM): tended to show higher cell counts than the control group; expression of Na+/K+ ATPase ([1]; 100 μM): expression of Na^+/K^+ ATPase was found; wound healing of corneal endothelium (corneal endothelium): promotes wound healing of corneal endothelium; apoptosis [2]: suppression of apoptosis; cell adhesion [2]: promotion of cell adhesion; cell cycle [2]: promotion of cell cycle; coverage of the sheet with cells ([3]; 10 μM): partially uncovered with cells; expression of Na+/K+ ATPase ([3]; 10 μM): found between cells in all; expression of ZO-1 ([3]; 10 μM): found between cells uniformly

Question: What does the source list for C[C@@H](N)c1ccc(C(=O)Nc2ccnc3[nH]ccc23)cc1.Cl [compound (I), (R)-(+)-N-(1H-pyrrolo[2,3-b]pyridin-4-yl)-4-(1-aminoethyl)benzamide monohydrochloride]?
Answer: number of dead cells versus control (corneoscleral tissues; 0.95 μM in Optisol-GS, 2 weeks): decreased significantly; number of apoptotic cells versus control (corneoscleral tissues; 0.95 μM in Optisol-GS, 3 weeks): decreased significantly; number of dead cells versus control (corneoscleral tissues; 0.95 μM in Optisol-GS, 3 weeks): decreased significantly; fibrosis of injected cells (Phalloidin staining) ([1]; 10 μM in cell suspension): suppression of fibrosis of cells; corneal endothelial cell count versus 100 μM Y-27632 group ([1]; 10 μM): higher than that of the 100 μM Y-27632 treatment group; corneal endothelial cell count versus control group ([1]; 10 μM): tended to show higher cell counts than the control group; expression of Na+/K+ ATPase ([1]; 10 μM): expression of Na^+/K^+ ATPase was found; coverage of the sheet with cells ([3]; 0.95 μM): cells were adhered to the whole surface of the sheet; expression of Na+/K+ ATPase ([3]; 0.95 μM): found between cells in all; expression of ZO-1 ([3]; 0.95 μM): found between cells uniformly; time in which a cultured corneal endothelial cell sheet for transplantation can be produced ([3]; from the addition to culture medium): 48 h
